Measurements from paper PMC6364417, “Kinase inhibitor library screening identifies synergistic drug combinations effective in sensitive and resistant melanoma cells” (Journal of Experimental & Clinical Cancer Research : CR, 2019).

Legend:
Assay in all cases: Kinase inhibitor library screening, PrestoBlue cell viability, 1 or 10 μM, 72 h
501Mel cells (parental) = conditions: 501Mel Parental, in %
How it was run: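 Treatment: 72 h with inhibitor. Detection: PrestoBlue, plate reader. Output: viability as % untreated control. Replicates: duplicate minimum. Lines: parental plus Vemurafenib- or Dabrafenib-resistant derivatives.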

[1] = tested on: 501Mel-GP cells (Dabrafenib-resistant); conditions: 501Mel GP, in %; for Cell viability in kinase inhibitor library screening, 501Mel GP, 1μΜ / Cell viability in kinase inhibitor library screening, 501Mel GP, 10μΜ: 72 h
[2] = tested on: 501Mel-XP cells (Vemurafenib-resistant); conditions: 501Mel XP, in %; for Cell viability in kinase inhibitor library screening, 501Mel XP, 1μΜ / Cell viability in kinase inhibitor library screening, 501Mel XP, 10μΜ: 72 h
A375 cells (parental) = conditions: A375 Parental; for Cell viability in kinase inhibitor library screening, A375 Parental, 10μΜ / Cell viability in kinase inhibitor library screening, A375 Parental, 1μΜ: 72 h; for cell viability (kinase inhibitor library screening): in %
[3] = tested on: A375-GP cells (Dabrafenib-resistant); conditions: A375 GP; for Cell viability in kinase inhibitor library screening, A375 GP, 1μΜ / Cell viability in kinase inhibitor library screening, A375 GP, 10μΜ: 72 h; for cell viability (kinase inhibitor library screening): in %
[4] = tested on: A375-XP cells (Vemurafenib-resistant); conditions: A375 XP; for Cell viability in kinase inhibitor library screening, A375 XP, 1μΜ / Cell viability in kinase inhibitor library screening, A375 XP, 10μΜ: 72 h; for cell viability (kinase inhibitor library screening): in %
IGR37 cells (parental) = conditions: IGR37 Parental, in %; for Cell viability in kinase inhibitor library screening, IGR37 Parental, 1μΜ / Cell viability in kinase inhibitor library screening, IGR37 Parental, 10μΜ: 72 h
[5] = tested on: IGR37-GP cells (Dabrafenib-resistant); conditions: IGR37 GP; for Cell viability in kinase inhibitor library screening, IGR37 GP, 10μΜ / Cell viability in kinase inhibitor library screening, IGR37 GP, 1μΜ: 72 h; for Cell viability in kinase inhibitor library screening, IGR37 GP, 1μΜ / cell viability (kinase inhibitor library screening): in %
[6] = tested on: IGR37-XP cells (Vemurafenib-resistant); conditions: IGR37 XP; for Cell viability in kinase inhibitor library screening, IGR37 XP, 10μΜ / Cell viability in kinase inhibitor library screening, IGR37 XP, 1μΜ: 72 h; for Cell viability in kinase inhibitor library screening, IGR37 XP, 1μΜ / cell viability (kinase inhibitor library screening): in %

Row | SMILES | Cell viability in kinase inhibitor library screening, 501Mel Parental, 10μΜ (501Mel cells (parental); 10μΜ, 72 h) | Cell viability in kinase inhibitor library screening, 501Mel GP, 1μΜ ([1]; 1μΜ) | Cell viability in kinase inhibitor library screening, 501Mel GP, 10μΜ ([1]; 10μΜ) | Cell viability in kinase inhibitor library screening, 501Mel XP, 1μΜ [2] | Cell viability in kinase inhibitor library screening, 501Mel XP, 10μΜ ([2]; 10μΜ) | Cell viability in kinase inhibitor library screening, A375 Parental, 10μΜ (A375 cells (parental); 10μΜ) | Cell viability in kinase inhibitor library screening, A375 Parental, 1μΜ (A375 cells (parental); 1μΜ) | Cell viability in kinase inhibitor library screening, A375 GP, 1μΜ ([3]; 1μΜ) | Cell viability in kinase inhibitor library screening, A375 GP, 10μΜ ([3]; 10μΜ) | Cell viability in kinase inhibitor library screening, A375 XP, 1μΜ ([4]; 1μΜ) | Cell viability in kinase inhibitor library screening, A375 XP, 10μΜ ([4]; 10μΜ) | Cell viability in kinase inhibitor library screening, IGR37 Parental, 1μΜ (IGR37 cells (parental)) | Cell viability in kinase inhibitor library screening, IGR37 Parental, 10μΜ (IGR37 cells (parental); 10μΜ) | Cell viability in kinase inhibitor library screening, IGR37 GP, 10μΜ ([5]; 10μΜ) | Cell viability in kinase inhibitor library screening, IGR37 GP, 1μΜ ([5]; 1μΜ) | Cell viability in kinase inhibitor library screening, IGR37 XP, 10μΜ ([6]; 10μΜ) | Cell viability in kinase inhibitor library screening, IGR37 XP, 1μΜ ([6]; 1μΜ) | further results
1 | COc1ccc(-c2ccc3c(N4CCOCC4)nc(N4C[C@@H](C)O[C@@H](C)C4)nc3n2)cc1CO [Ku-0063794] | 16.9 | 56.6 | 13.4 | 47.2 | 6.9 | 24.0 | 63.8 | 63.9 | 20.8 | 54.3 | 19.7 | 73.4 | 23.7 | 36.1% | 76.2 | 12.3% | 68.5 | Cell viability in kinase inhibitor library screening, 501Mel Parental, 1μΜ (501Mel cells (parental); 1μΜ, 72 h): 71.5
2 | c1ccc2c(-c3cnn4cc(-c5ccc(N6CCNCC6)cc5)cnc34)ccnc2c1 [LDN193189] | – | – | – | – | – | – | – | – | – | – | – | – | – | – | – | – | – | cell viability (kinase inhibitor library screening) (501Mel cells (parental); 1μΜ): 119.0; cell viability (kinase inhibitor library screening) (501Mel cells (parental); 10μΜ): 0.949; cell viability (kinase inhibitor library screening) ([1]; 1μΜ): 129.1; cell viability (kinase inhibitor library screening) ([1]; 10μΜ): 1.7; cell viability (kinase inhibitor library screening) ([2]; 10μΜ): 0.8; cell viability (kinase inhibitor library screening) (A375 cells (parental); 1μΜ): 104.5; cell viability (kinase inhibitor library screening) (A375 cells (parental); 10μΜ): 1.7; cell viability (kinase inhibitor library screening) ([3]; 1μΜ): 104.8; cell viability (kinase inhibitor library screening) ([3]; 10μΜ): 3.4; cell viability (kinase inhibitor library screening) ([4]; 1μΜ): 98.9; cell viability (kinase inhibitor library screening) ([4]; 10μΜ): 2.6; cell viability (kinase inhibitor library screening) (IGR37 cells (parental); 10μΜ): 0.221; cell viability (kinase inhibitor library screening) ([5]; 1μΜ): 94.5; cell viability (kinase inhibitor library screening) ([5]; 10μΜ): 4.6; cell viability (kinase inhibitor library screening) ([6]; 1μΜ): 103.7; cell viability (kinase inhibitor library screening) ([6]; 10μΜ): 3.2
3 | O=c1cc(N2CCOCC2)oc2c(-c3ccccc3)cccc12 [LY294002] | 86.8 | 104.8 | 77.9 | 91.4 | 68.2 | 80.4 | 105.7 | 104.5 | 79.2 | 104.6 | 90.9 | 106.7 | 84.5 | 72.8% | 100.0 | 46.1% | 100.0 | –
